Data taken from EPA's CvTdb concentration-time database.

Columns and labels:
[1] = test system: Rat; test: concentration in plasma after dosing; conditions: 18 h; dosed: Gemfibrozil; 50 mg/kg; oral; Male; Sprague-Dawley
[2] = test system: Rat; test: concentration in plasma after dosing; conditions: 24 h; dosed: Gemfibrozil; 100 mg/kg; oral; Male; Sprague-Dawley
[3] = test system: Rat; test: concentration in plasma after dosing; conditions: 0.25 h; dosed: Gemfibrozil; 50 mg/kg; oral; Male; Sprague-Dawley
[4] = test system: Rat; test: concentration in plasma after dosing; conditions: 6 h; dosed: Gemfibrozil; 4.29 mg/kg; oral; Male; Sprague-Dawley
[5] = test system: Rat; test: concentration in plasma after dosing; conditions: 10 min; dosed: Gemfibrozil; 4.29 mg/kg; oral; Male; Sprague-Dawley
[6] = test system: Rat; test: concentration in plasma after dosing; conditions: 6 h; dosed: Gemfibrozil; 100 mg/kg; oral; Male; Sprague-Dawley
[7] = test system: Rat; test: concentration in plasma after dosing; conditions: 5 min; dosed: Gemfibrozil; 100 mg/kg; oral; Male; Sprague-Dawley
[8] = test system: Rat; test: concentration in plasma after dosing; conditions: 0.5 h; dosed: Gemfibrozil; 100 mg/kg; oral; Male; Sprague-Dawley
[9] = test system: Rat; test: concentration in brain after dosing; conditions: 4 h; dosed: 2-Methyltetrahydrofuran; 40 mg/kg; iv; Male; Harlan Sprague Dawley
[10] = test system: Rat; test: concentration in plasma after dosing; conditions: 2 min; dosed: 2-Methyltetrahydrofuran; 40 mg/kg; iv; Male; Harlan Sprague Dawley
[11] = test system: Rat; test: concentration in plasma after dosing; conditions: 4 h; dosed: 2-Methyltetrahydrofuran; 40 mg/kg; iv; Female; Harlan Sprague Dawley
[12] = test system: Rat; test: concentration in plasma after dosing; conditions: 6 h; dosed: 2-Methyltetrahydrofuran; 40 mg/kg; iv; Male; Harlan Sprague Dawley
[13] = test system: Rat; test: concentration in kidney after dosing; conditions: 3360 h; dosed: Perfluorooctane Sulfonate; 20 mg/kg; oral; Male; Harlan Sprague Dawley
[14] = test system: Rat; test: concentration in liver after dosing; conditions: 3360 h; dosed: Perfluorooctane Sulfonate; 2 mg/kg; oral; Female; Harlan Sprague Dawley
[15] = test system: Rat; test: concentration in brain after dosing; conditions: 1848 h; dosed: Perfluorooctane Sulfonate; 20 mg/kg; oral; Male; Harlan Sprague Dawley
[16] = test system: Rat; test: concentration in kidney after dosing; conditions: 6 h; dosed: Perfluorooctane Sulfonate; 2 mg/kg; oral; Female; Harlan Sprague Dawley
[17] = test system: Rat; test: concentration in kidney after dosing; conditions: 1848 h; dosed: Perfluorooctane Sulfonate; 2 mg/kg; oral; Female; Harlan Sprague Dawley
[18] = test system: Rat; test: concentration in liver after dosing; conditions: 24 h; dosed: Perfluorooctane Sulfonate; 20 mg/kg; oral; Male; Harlan Sprague Dawley
[19] = test system: Rat; test: concentration in liver after dosing; conditions: 864 h; dosed: Perfluorooctane Sulfonate; 2 mg/kg; oral; Female; Harlan Sprague Dawley
[20] = test system: Rat; test: concentration in plasma after dosing; conditions: dosed: Perfluorooctane Sulfonate, 2 mg/kg, iv, Male, F344
[21] = test system: Rat; test: concentration in liver after dosing; conditions: 3360 h; dosed: Perfluorooctane Sulfonate; 2 mg/kg; oral; Female; Harlan Sprague Dawley; remark: listed apart in the source
[22] = test system: Rat; test: concentration in kidney after dosing; conditions: 24 h; dosed: Perfluorooctane Sulfonate; 2 mg/kg; oral; Female; Harlan Sprague Dawley
[23] = test system: Rat; test: concentration in kidney after dosing; conditions: 3360 h; dosed: Perfluorooctane Sulfonate; 20 mg/kg; oral; Male; Harlan Sprague Dawley; remark: listed apart in the source
[24] = test system: Rat; test: concentration in kidney after dosing; conditions: 864 h; dosed: Perfluorooctane Sulfonate; 2 mg/kg; oral; Female; Harlan Sprague Dawley
[25] = test system: Rat; test: concentration in liver after dosing; conditions: 3360 h; dosed: Perfluorooctane Sulfonate; 20 mg/kg; oral; Male; Harlan Sprague Dawley
[26] = test system: Rat; test: concentration in brain after dosing; conditions: 24 h; dosed: Perfluorooctane Sulfonate; 2 mg/kg; oral; Female; Harlan Sprague Dawley
[27] = test system: Rat; test: concentration in plasma after dosing; conditions: dosed: Perfluorohexanoic Acid, 40 mg/kg, oral, Male, Harlan Sprague Dawley
[28] = test system: Rat; test: concentration in plasma after dosing; conditions: dosed: Perfluorohexanoic Acid, 40 mg/kg, iv, Male, F344
[29] = test system: Rat; test: concentration in kidney after dosing; conditions: 1 h; dosed: Perfluorohexanoic Acid; 80 mg/kg; oral; Male; Harlan Sprague Dawley
[30] = test system: Rat; test: concentration in plasma after dosing; conditions: dosed: Perfluorohexanoic Acid, 40 mg/kg, iv, Male, F344; remark: listed apart in the source
[31] = test system: Rat; test: concentration in plasma after dosing; conditions: 0.5 h; dosed: Perfluorohexanoic Acid; 80 mg/kg; oral; Male; Harlan Sprague Dawley
[32] = test system: Rat; test: concentration in plasma after dosing; conditions: dosed: Fluorotelomer alcohol 8+2, 12 mg/kg, oral, Male, Harlan Sprague Dawley
[33] = test system: Rat; test: concentration in kidney after dosing; conditions: 1 h; dosed: Fluorotelomer alcohol 8+2; 24 mg/kg; oral; Male; Harlan Sprague Dawley
[34] = test system: Rat; test: concentration in brain after dosing; conditions: 12 h; dosed: Fluorotelomer alcohol 8+2; 80 mg/kg; oral; Female; Harlan Sprague Dawley
[35] = test system: Rat; test: concentration in plasma after dosing; conditions: dosed: Fluorotelomer alcohol 8+2, 12 mg/kg, oral, Male, Harlan Sprague Dawley; remark: listed apart in the source
[36] = test system: Rat; test: concentration in plasma after dosing; conditions: dosed: Fluorotelomer alcohol 8+2, 12 mg/kg, oral, Male, Harlan Sprague Dawley; remark: listed apart in the source
[37] = test system: Rat; test: concentration in plasma after dosing; conditions: 192 h; dosed: 678-39-7; 12 mg/kg; iv; Male; F344
[38] = test system: Rat; test: concentration in liver after dosing; conditions: 0.5 h; dosed: Fluorotelomer alcohol 8+2; 24 mg/kg; oral; Male; Harlan Sprague Dawley
[39] = test system: Rat; test: concentration in plasma after dosing; conditions: dosed: Fluorotelomer alcohol 8+2, 12 mg/kg, oral, Male, Harlan Sprague Dawley; remark: listed apart in the source

Cc1ccc(C)c(OCCCC(C)(C)C(=O)O)c1 [Gemfibrozil]
Conditions | concentration in plasma [ng/mL]
[1] | 1100
[2] | 1050
[3] | 79300
[4] | 388
[5] | 657
[6] | 22700
[7] | 1690
[8] | 40400

CC1CCCO1 (stereo not drawn) [2-Methyltetrahydrofuran]
Conditions | concentration in brain [ng/mL] | concentration in plasma [ng/mL]
[9] | 1660 | –
[10] | – | 59400
[11] | – | 245
[12] | – | 16.9

O=S(=O)([O-])C(F)(F)C(F)(F)C(F)(F)C(F)(F)C(F)(F)C(F)(F)C(F)(F)C(F)(F)F [Perfluorooctane Sulfonate]
Conditions | concentration in brain [ng/g] | concentration in kidney [ng/g] | concentration in liver [ng/g]
[13] | – | 4360 | –
[14] | – | – | 3090
[15] | 2130 | – | –
[16] | – | 8350 | –
[17] | – | 2450 | –
[18] | – | – | 164000
[19] | – | – | 11100
[21] | – | – | 9920
[22] | – | 9700 | –
[23] | – | 13900 | –
[24] | – | 1390 | –
[25] | – | – | 29800
[26] | 757 | – | –

[20]
Conditions | concentration in plasma [ng/mL]
6 h | 4220
864 h | 1290
3216 h | 359

O=C(O)C(F)(F)C(F)(F)C(F)(F)C(F)(F)C(F)(F)F [Perfluorohexanoic Acid]
Conditions | concentration in plasma [ng/mL]
[27], 0.75 h | 78200
[27], 12 h | 5210
[28], 0.25 h | 19100
[28], 6 h | 2380
[30], 0.5 h | 14500
[30], 12 h | 35.7

Conditions | concentration in kidney [ng/g] | concentration in plasma [ng/mL]
[29] | 79900 | –
[31] | – | 151000

O=C(O)CCC(F)(F)C(F)(F)C(F)(F)C(F)(F)C(F)(F)C(F)(F)C(F)(F)F [Fluorotelomer acid 7+3]
Conditions | concentration in plasma [ng/mL]
[32], 0.75 h | 274
[32], 12 h | 110
[35], 1 h | 650
[35], 24 h | 210
[36], 0.5 h | 133
[36], 9 h | 218
[39], 0.25 h | 41.6
[39], 6 h | 841

Conditions | concentration in brain [ng/g] | concentration in kidney [ng/g] | concentration in liver [ng/g] | concentration in plasma [ng/mL]
[33] | – | 568 | – | –
[34] | 432 | – | – | –
[37] | – | – | – | 13.6
[38] | – | – | 347 | –
